According to ChEMBL document CHEMBL1275492, “In vitro activity of ceftobiprole against pathogens from two phase 3 clinical trials of complicated skin and skin structure infections” (2008):

Key:
Type in all cases: functional
[1] = test system: Staphylococcus saprophyticus; assay: Antibacterial activity against coagulase-negative Staphylococcus saprophyticus obtained from complicated skin and skin structure infections by agar dilution method
[2] = test system: Staphylococcus epidermidis; assay: Antibacterial activity against coagulase-negative Staphylococcus epidermidis obtained from complicated skin and skin structure infections by agar dilution method
Gemella = assay: Antibacterial activity against Gemella spp. obtained from complicated skin and skin structure infections by agar dilution method
Mammaliicoccus sciuri = assay: Antibacterial activity against coagulase-negative Staphylococcus sciuri obtained from complicated skin and skin structure infections by agar dilution method
Staphylococcus aureus [3] = assay: Antibacterial activity against methicillin susceptible Staphylococcus aureus obtained from complicated skin and skin structure infections by agar dilution method
[4] = test system: Streptococcus constellatus; assay: Antibacterial activity against Streptococcus constellatus obtained from complicated skin and skin structure infections by agar dilution method
Staphylococcus warneri = assay: Antibacterial activity against coagulase-negative Staphylococcus warneri obtained from complicated skin and skin structure infections by agar dilution method
Staphylococcus hominis = assay: Antibacterial activity against coagulase-negative Staphylococcus hominis obtained from complicated skin and skin structure infections by agar dilution method
Bacillus = assay: Antibacterial activity against Bacillus spp. obtained from complicated skin and skin structure infections by agar dilution method
[5] = test system: Staphylococcus intermedius; assay: Antibacterial activity against Staphylococcus intermedius obtained from complicated skin and skin structure infections by agar dilution method
[6] = test system: Staphylococcus lugdunensis; assay: Antibacterial activity against coagulase-negative Staphylococcus lugdunensis obtained from complicated skin and skin structure infections by agar dilution method
Staphylococcus = assay: Antibacterial activity against methicillin-susceptible, coagulase-negative Staphylococcus obtained from complicated skin and skin structure infections by agar dilution method
Staphylococcus aureus [7] = assay: Antibacterial activity against methicillin resistant Staphylococcus aureus obtained from complicated skin and skin structure infections by agar dilution method
Staphylococcus aureus [8] = assay: Antibacterial activity against Staphylococcus aureus obtained from complicated skin and skin structure infections by agar dilution method
Lactococcus lactis = assay: Antibacterial activity against Lactococcus lactis obtained from complicated skin and skin structure infections by agar dilution method
Gemella morbillorum = assay: Antibacterial activity against Gemella morbillorum obtained from complicated skin and skin structure infections […]
Staphylococcus cohnii = assay: Antibacterial activity against coagulase-negative Staphylococcus cohnii obtained from complicated skin and skin structure infections by agar dilution method
Aerococcus viridans = assay: Antibacterial activity against Aerococcus viridans obtained from complicated skin and skin structure infections by agar dilution method
Streptococcus mitis = assay: Antibacterial activity against Streptococcus mitis obtained from complicated skin and skin structure infections by agar dilution method
[9] = test system: Staphylococcus lugdunensis; assay: Antibacterial activity against methicillin-resistant, oxacillin-susceptible, coagulase-negative, mecA-positive Staphylococcus lugdunensis obtained from complicated skin and skin structure infections by agar dilution method
Micrococcus = assay: Antibacterial activity against Micrococcus spp. obtained from complicated skin and skin structure infections by agar dilution method
[10] = test system: Staphylococcus haemolyticus; assay: Antibacterial activity against coagulase-negative Staphylococcus haemolyticus obtained from complicated skin and skin structure infections by agar dilution method
Staphylococcus capitis = assay: Antibacterial activity against coagulase-negative Staphylococcus capitis obtained from complicated skin and skin structure infections by agar dilution method
Acinetobacter baumannii = assay: Antibacterial activity against Acinetobacter baumannii obtained from complicated skin and skin structure infections by agar dilution method
Pseudomonas fluorescens = assay: Antibacterial activity against Pseudomonas fluorescens obtained from complicated skin and skin structure infections by agar dilution method
Salmonella = assay: Antibacterial activity against Salmonella spp. obtained from complicated skin and skin structure infections by agar dilution method
Providencia stuartii = assay: Antibacterial activity against Providencia stuartii obtained from complicated skin and skin structure infections by agar dilution method
Morganella morganii = assay: Antibacterial activity against Morganella morganii obtained from complicated skin and skin structure infections by agar dilution method
Klebsiella aerogenes = assay: Antibacterial activity against Enterobacter aerogenes obtained from complicated skin and skin structure infections by agar dilution method
Proteus mirabilis = assay: Antibacterial activity against Proteus mirabilis obtained from complicated skin and skin structure infections by agar dilution method
Citrobacter braakii = assay: Antibacterial activity against Citrobacter braakii obtained from complicated skin and skin structure infections by agar dilution method
[11] = test system: Stenotrophomonas maltophilia; assay: Antibacterial activity against Stenotrophomonas maltophilia obtained from complicated skin and skin structure infections by agar dilution method
Escherichia coli = assay: Antibacterial activity against Escherichia coli obtained from complicated skin and skin structure infections by agar dilution method
Enterobacter amnigenus = assay: Antibacterial activity against Enterobacter amnigenus obtained from complicated skin and skin structure infections by agar dilution method; details: Lelliottia amnigena
Citrobacter freundii = assay: Antibacterial activity against Citrobacter freundii obtained from complicated skin and skin structure infections by agar dilution method
Pseudomonas aeruginosa = assay: Antibacterial activity against Pseudomonas aeruginosa obtained from complicated skin and skin structure infections by agar dilution method
Proteus vulgaris = assay: Antibacterial activity against Proteus vulgaris obtained from complicated skin and skin structure infections by agar dilution method
Proteus penneri = assay: Antibacterial activity against Proteus penneri obtained from complicated skin and skin structure infections by agar dilution method
Klebsiella oxytoca = assay: Antibacterial activity against Klebsiella oxytoca obtained from complicated skin and skin structure infections by agar dilution method
Serratia marcescens = assay: Antibacterial activity against Serratia marcescens obtained from complicated skin and skin structure infections by agar dilution method
Klebsiella pneumoniae = assay: Antibacterial activity against Klebsiella pneumoniae obtained from complicated skin and skin structure infections by agar dilution method

Cc1onc(-c2ccccc2)c1C(=O)N[C@@H]1C(=O)N2[C@@H]1SC(C)(C)[C@@H]2C(=O)O [OXACILLIN]
0.12 µg/mL: MIC50 [4] | MIC50 (Staphylococcus)
> 8 µg/mL: MIC90 [1] | MIC90 [2] | MIC90 (Gemella) | MIC90 (Mammaliicoccus sciuri) | MIC90 (Staphylococcus warneri) | MIC90 (Staphylococcus hominis) | MIC90 (Bacillus) | MIC90 [6] | MIC90 (Lactococcus lactis) | MIC90 (Gemella morbillorum) | MIC90 (Staphylococcus cohnii) | MIC90 (Aerococcus viridans) | MIC90 (Micrococcus) | MIC90 [10] | MIC90 (Staphylococcus capitis)
1 µg/mL: MIC90 [5] | MIC90 (Streptococcus mitis)
> 32 µg/mL: MIC90 (Staphylococcus aureus [7])
0.5 µg/mL: MIC50 [1] | MIC50 [2] | MIC50 (Mammaliicoccus sciuri) | MIC90 (Staphylococcus aureus [3]) | MIC50 (Staphylococcus warneri) | MIC50 (Staphylococcus hominis) | MIC50 [6] | MIC50 (Staphylococcus aureus [8]) | MIC50 (Staphylococcus cohnii) | MIC50 [10] | MIC50 (Staphylococcus capitis)
32 µg/mL: MIC90 (Staphylococcus aureus [8]) | MIC90 [9]
0.25 µg/mL: MIC50 (Gemella) | MIC50 (Staphylococcus aureus [3]) | MIC90 [4] | MIC50 (Bacillus) | MIC [5] | MIC50 [5] | MIC90 (Staphylococcus) | MIC50 (Lactococcus lactis) | MIC50 (Gemella morbillorum) | MIC50 (Aerococcus viridans) | MIC (Streptococcus mitis) | MIC50 (Streptococcus mitis) | MIC50 (Micrococcus)
4 µg/mL: MIC50 [9]
16 µg/mL: MIC50 (Staphylococcus aureus [7])

O=C(O)c1cn(C2CC2)c2cc(N3CCNCC3)c(F)cc2c1=O [CIPROFLOXACIN]
> 2 µg/mL: MIC50 (Acinetobacter baumannii) | MIC50 (Pseudomonas fluorescens) | MIC90 (Salmonella) | MIC90 (Providencia stuartii) | MIC90 (Klebsiella aerogenes) | MIC90 (Proteus mirabilis) | MIC90 (Citrobacter braakii) | MIC50 [11] | MIC90 (Enterobacter amnigenus) | MIC90 (Citrobacter freundii) | MIC90 (Proteus vulgaris) | MIC90 (Proteus penneri) | MIC90 (Klebsiella oxytoca) | MIC90 (Serratia marcescens)
0.03 µg/mL: MIC50 (Proteus mirabilis)
0.015 µg/mL: MIC50 (Salmonella) | MIC50 (Providencia stuartii) | MIC50 (Klebsiella aerogenes) | MIC50 (Citrobacter braakii) | MIC50 (Escherichia coli) | MIC50 (Enterobacter amnigenus) | MIC50 (Citrobacter freundii) | MIC50 (Proteus vulgaris) | MIC50 (Proteus penneri) | MIC50 (Klebsiella oxytoca) | MIC50 (Serratia marcescens)
1 µg/mL: MIC90 (Escherichia coli) | MIC50 (Pseudomonas aeruginosa)
0.12 µg/mL: MIC50 (Morganella morganii)
> 8 µg/mL: MIC90 (Acinetobacter baumannii) | MIC90 (Pseudomonas fluorescens) | MIC90 (Morganella morganii) | MIC90 [11] | MIC90 (Pseudomonas aeruginosa)

CO/N=C(\C(=O)N[C@@H]1C(=O)N2C(C(=O)[O-])=C(C[N+]3(C)CCCC3)CS[C@H]12)c1csc(N)n1
0.12 µg/mL: MIC90 (Escherichia coli)
1 µg/mL: MIC90 (Proteus mirabilis) | MIC90 (Klebsiella pneumoniae)
≤ 0.12 µg/mL: MIC50 (Klebsiella pneumoniae)
64 µg/mL: MIC90 (Pseudomonas aeruginosa)
0.03 µg/mL: MIC50 (Morganella morganii) | MIC50 (Escherichia coli)
> 64 µg/mL: MIC90 (Morganella morganii)
0.06 µg/mL: MIC50 (Salmonella) | MIC50 (Providencia stuartii) | MIC50 (Klebsiella aerogenes) | MIC50 (Proteus mirabilis) | MIC50 (Citrobacter braakii) | MIC50 (Enterobacter amnigenus) | MIC50 (Citrobacter freundii) | MIC50 (Proteus vulgaris) | MIC50 (Proteus penneri) | MIC50 (Klebsiella oxytoca) | MIC50 (Serratia marcescens)
> 16 µg/mL: MIC50 (Acinetobacter baumannii) | MIC50 (Pseudomonas fluorescens) | MIC50 [11]
4 µg/mL: MIC90 (Salmonella) | MIC90 (Providencia stuartii) | MIC90 (Klebsiella aerogenes) | MIC90 (Citrobacter braakii) | MIC90 (Enterobacter amnigenus) | MIC90 (Citrobacter freundii) | MIC50 (Pseudomonas aeruginosa) | MIC90 (Proteus vulgaris) | MIC90 (Proteus penneri) | MIC90 (Klebsiella oxytoca) | MIC90 (Serratia marcescens)
32 µg/mL: MIC90 (Acinetobacter baumannii) | MIC90 (Pseudomonas fluorescens) | MIC90 [11]
